Patent publication US8617563B2, “Antichlamydial agents” (Duke University, priority 2011, dated 2013)
“Also recorded” adds a separate entry of the source. Where no end group is shown, it is not given here.

Experiments:
C. trachomatis LGV-L2 = test: Generation of infectious particles (IFU) and inclusion growth in infected HeLa cells; type: cell-based
Method: FIG. 9 depicts (A) CPAF inhibitory peptides block the generation of Chlamydia infectious particles. L2-infected HeLa cells were treated at 12 hpi with increasing concentration of peptides. EBs were harvested at 30 hpi and inclusion-forming units (IFU) were quantified on fresh cell monolayers. (B-D) CPAF activity is required to maintain inclusion integrity. The integrity of the inclusion was determined by assessing the immunolocalization of the inclusion membrane marker IncA (red) and Chlamydia (green) (B) and by transmission electron microscopy (C). […] (D) The percentage of vimentin-positive inclusions was determined by IF in infected cells treated with SEQ ID NO:7 and SEQ ID NO:11 (12 hpi) peptides at 24 hpi. (E) Activation of inflammatory cytokines upon inhibition of CPAF activity. Levels of IL-8 supernatants from Chlamydia infected cells treated with peptides as in (B-D) were determined at 24 hpi by ELISA.
Cells were infected with an MOI of 1 and treated with CPAF inhibitor (SEQ ID NO:7) or control (SEQ ID NO:11) peptides at 12 hpi, fixed at 24 hpi and analyzed by IF with anti-L2 polyclonal antisera. Inclusion size was determined by measuring the inclusion diameter in μm by confocal microscopy of 50 infected cells. The number of cells with fragmented inclusions was determined by counting the number of infected cells out of 50 with more than one inclusion. […]

[1] = test system: HeLa cells pre-infected with L2; test: Secondary EB infection of pre-infected HeLa cells (Tarp translocation, stability, EB entry); type: cell-based, C. trachomatis
Method: FIG. 8 depicts (A-C(I-IV)) Tarp translocated by EBs is a target of CPAF-mediated degradation. Uninfected and HeLa cells pre-infected with L2 for 30 hrs were treated with inhibitory peptides and infected with EBs for 10 min Tarp translocation was indirectly visualized with an anti-phosphotyrosine antibody (A) and quantified by counting 50 separate cells (B). The stability of newly translocated Tarp was assessed by infecting cells as in (A) but with S^35-labeled EBs, followed by sequential immunoprecipitation of Tarp and MOMP and Phosphoimager analysis of precipitated material (C (I-IV)). Tarp is degraded in pre-infected HeLa cells in a CPAF-dependent manner. (D) Effective inhibition of CPAF activity by inhibitory peptide. IC50 values were determined by assessing CPAF cleavage of an Abz-tagged CPAF substrate (SEQ ID NO:9) by HPLC. Assays were performed the presence of increasing amount of inhibitors. […] CPAF cleavage of GST-chlamydial substrates was performed as in FIG. 4B but in the presence of SEQ ID NO:7 and SEQ ID NO:11 peptides (E). For in vivo inhibition effects on Chlamydia (L2), infected HeLa cells were treated with peptides at 12 hpi, and harvested at 30 hpi (F). […] (G and H) CPAF restricts EB entry into preinfected cells. Cells were infected as in (A), except that the secondary infections (30 min) were performed with fluorescently labeled EBs and infected cells were not permeabilized. […] Extracellular bacteria were determined. […] The number of internalized EBs was quantified per cell (H). […]
Next, HeLa cells or inclusion-containing HeLa cells were infected with ^35S-radiolabeled EBs, followed by immunoprecipitation of Tarp at various times after infection to determine the stability of translocated Tarp under these conditions. […] Tarp and MOMP were immunoprecipitated using anti-Tarp and anti-MOMP protein A sepharose beads (available from GE Healthcare), detected in a Typhoon9410 Variable Image Phosphor Imager (available from Amersham Biosciences), and quantified using ImageQuant 5.1TL software (available from GE Healthcare). […]

C. caviae CPAF = test: GST-IncC cleavage by lysate of C. caviae (GPIC) infected cells; type: biochemical; conditions: infected whole cell lysate
Method: Cells were infected with an MOI of 1 and treated with CPAF inhibitor (SEQ ID NO:7) or control (SEQ ID NO:11) peptides at 12 hpi, fixed at 24 hpi and analyzed by IF with anti-L2 polyclonal antisera. Inclusion size was determined by measuring the inclusion diameter in μm by confocal microscopy of 50 infected cells. The number of cells with fragmented inclusions was determined by counting the number of infected cells out of 50 with more than one inclusion. (C) Sequence alignment and % sequence identify of full length CPAF and predicted inhibitory peptide sequence between C. trachomatis serovar LGV-L2, Chlamydia muridarum, and Chlamydophila caviae was determined using Geneious software (available at the Geneious website). […] GPIC or C. muridarum infected whole cell protein lysate was preincubated with SEQ ID NO:7 peptide or SEQ ID NO:11 control peptide, mixed with GST-IncC at 37° C., resolved by SDS-PAGE and stained with Coomassie blue. […] Inhibition of C. muridarum (E) and C. ceviae (F) growth was determined by counting the number of recovered IFUs. […] Inclusions were detected by IF with anti-LGV-L2 (A, B, E) antisera or anti-chlamydial LPS (F) monoclonal antibodies, and host nuclei sere detected by staining.

SLFYSPMVPHFWAELRNHYATSGLKRRRRRRRRR-NH2 [SEQ ID NO:7]
Yields of EBs (IFU) (C. trachomatis LGV-L2; L2-infected HeLa, peptide at 12 hpi, EBs harvested 30 hpi): significantly lowered yields of EBs
Inclusion growth (C. trachomatis LGV-L2; MOI 1, peptide at 12 hpi, fixed 24 hpi): stunted inclusion growth
Accumulation of Tyr-phosphorylated proteins at EB attachment sites ([1]; pre-infected HeLa cells (30 h), 12 μM peptide): restored the accumulation
Degradation of Tarp in pulse-chase experiments ([1]; pre-infected HeLa cells, 35S-labeled EBs, 12 μM peptide): blocked the degradation of Tarp
EB entry into preinfected cells ([1]; secondary infection 30 min, labeled EBs): increased EB entry
Inhibition of C. caviae CPAF (C. caviae CPAF): not sensitive to inhibition; also recorded: but not C. ceviae CPAF
